In patent US9181265B2, “Substituted 2,3-dihydro-1H-benzo[a]pyrano[2,3-c]phenazines as anti-angiogenic and anti-cancer agents” (UNIVERSITE CATHOLIQUE DE LOUVAIN, priority 2010, dated 2015):
Like-named read-outs stand apart in the source and are kept apart here. Marks after values point to notes of the source that are not given here.

Legend:
[1] = system: Human umbilical vein endothelial cells (HUVEC); assay: MTT test of overall cell growth, endothelial cells, normoxic or hypoxic conditions; assay type: cell-based; conditions: for IC50: Homo sapiens; for Selectivity: if u.t.d., ratio of activity at 100 μM
Experimental: (§1) MTT tests were performed in order to rapidly, i.e. within 3 days, measure the effect of compounds of this invention on the overall cell growth. The test measured the number of metabolically active living cells that were able to transform the yellow product 3-(4,5-dimethylthiazol-2-yl)-2,5-diphenyl tetrazolium bromide (herein referred as MTT) into the blue product formazan dye by mitochondrial reduction. The amount of formazan obtained at the end of the experiment, measured by means of a spectrophotometer (Plate Reader Victor X4 Microplate reader (Perkin Elmer), is directly proportional to the number of living cells. Optical density determination thus enabled a quantitative measurement of the effect of the investigated compounds under control conditions (normoxia) as compared to the hypoxic conditions (0.1 or 1% O2) and/or untreated conditions.
(§2) Human umbilical vein endothelial cells (HUVEC) and six human cancer cell lines were used in the MTT tests. These cancer cell lines cover five histological cancer types including cervix (SiHa), breast (MCF-7 and MDA-MB231), prostate (PC3), glioma (U373), and colorectal (LoVo) cancers.
(§3) To perform the assay, cells were allowed to grow in 96-well microplates with a flat bottom following addition of an amount of 100 μl of cell suspension per well with 4,500 cells/well. Each cell line was seeded in its appropriate culture medium. HUVEC were cultured in a specific endothelial cell growth medium (ECACC, Sigma); SiHa cells in Glutamax-containing DMEM with 4.5 g/1 glucose (Invitrogen) supplemented with 10% Foetal Bovine Serum (PAA) and 1% penicillin+streptomycin mix (Invitrogen); MCF-7, MDA-MB-231, PC3, and LoVo cells in Glutamax-containing RPMI supplemented with 10% Foetal Bovine Serum (PAA) and 1% penicillin+streptomycin mix (Invitrogen) and U373 cells in Glutamax-containing DMEM (Invitrogen) with 5% Foetal Bovine Serum (PAA) and 1% penicillin+streptomycin mix (Invitrogen).
(§4) The detailed experimental procedure was the following: after a 24-hour period of incubation at 37° C., the culture medium was replaced by 100 μl of fresh medium in which the tested compound was previously dissolved, at the following concentrations: 10^−8 M, 5.10^−8, 10^−7, 5.10^−7, 10^−6, 5.10^−6, 10^−5, 5.10^−5 and 10^−[…]. Each experiment was performed in sestuplicates (6 times).
(§5) Cells were then incubated under normoxia in a Binder incubator (the O2 level corresponding to the concentration in the ambient air), or in a Ruskin hypoxia workstation under either 0.1% O2 (v/v) or 1% O2 (v/v). Under both conditions, the atmosphere was humidified and the CO2 concentration was fixed at 5 vol. %.
(§6) After 72 hours of incubation at 37° C. under normoxic or hypoxic conditions, with or without the compound to be tested, the medium was replaced by 100 μl of HBSS (without phenol red) containing MTT at a concentration of 0.5 or 1 mg/ml. The micro-wells were subsequently incubated during 3 hours and a half at 37° C. and centrifuged at 1300 rpm during 10 minutes. Medium was removed and formazan crystals formed were dissolved in 100 μl DMSO. The micro-wells were shaken for 5 minutes and read on a spectrophotometer at wavelengths of 570 nm (maximal formazan absorbance).
(§7) For each experimental condition, the mean optical density was calculated, allowing the determination of the percentage of living cells in comparison to the control.

MDA-MB-231 = assay: MTT test of overall cell growth, MDA-MB-231 breast cancer cells, normoxia or hypoxia; assay type: cell-based, human; conditions: for IC50: Homo sapiens, MDA-MB-231, hypoxia 1% O2, 72 h, read-out: IC50 (μM) Hypoxia 1% O2; for IC50 (μM) Normoxia: MDA-MB-231, normoxia, 72 h; for Selectivity: MDA-MB-231, IC50 (normoxia)/IC50 (hypoxia 1% O2), if u.t.d., ratio of activity at 100 μM
Experimental: as §1, §2, §3, §4, §5, §6, §7

MCF-7 = assay: MTT test of overall cell growth, MCF-7 breast cancer cells, normoxia or hypoxia; assay type: cell-based, human; conditions: for IC50 (μM) Normoxia: MCF-7, normoxia, 72 h; for IC50: Homo sapiens, MCF7, read-out: IC50 (μM) Hypoxia 1% O2; for Selectivity: MCF-7, IC50 (normoxia)/IC50 (hypoxia 1% O2), if u.t.d., ratio of activity at 100 μM
Experimental: as §1, §2, §3, §4, §5, §6, §7

PC3 = assay: MTT test of overall cell growth, PC3 prostate cancer cells, normoxia or hypoxia; assay type: cell-based, human; conditions: for IC50 (μM) Normoxia: PC3, normoxia, 72 h
Experimental: as §1, §2, §3, §4, §5, §6, §7

LoVo = assay: MTT test of overall cell growth, LoVo colorectal cancer cells, normoxia or hypoxia; assay type: cell-based, human; conditions: for IC50: Homo sapiens; for Selectivity: IC50 (normoxia)/IC50 (hypoxia 1% O2), if u.t.d., ratio of activity at 100 μM
Experimental: as §1, §2, §3, §4, §5, §6, §7

siHa = assay: MTT test of overall cell growth, SiHa cervix cancer cells, normoxia or hypoxia; assay type: cell-based, human; conditions: for IC50: Homo sapiens, hypoxia 1% O2, 72 h, read-out: IC50 (μM) Hypoxia 1% O2; for Selectivity: IC50 (normoxia)/IC50 (hypoxia 1% O2), if u.t.d., ratio of activity at 100 μM; for IC50 (μM) Normoxia: 72 h
Experimental: as §1, §2, §3, §4, §5, §6, §7

U373 = assay: MTT test of overall cell growth, U373 glioma cells, normoxia or hypoxia; assay type: cell-based, human; conditions: for IC50: Homo sapiens, U373 MG, U373, hypoxia 1% O2, 72 h, read-out: IC50 (μM) Hypoxia 1% O2; for IC50 (μM) Normoxia: U373, normoxia, 72 h; for Selectivity: U373, IC50 (normoxia)/IC50 (hypoxia 1% O2), if u.t.d., ratio of activity at 100 μM
Experimental: as §1, §2, §3, §4, §5, §6, §7

[2] = 72 h, hypoxia 0.1% O2, 72 h, read-out: IC50 (μM) Hypoxia 0.1%
[3] = 72 h, hypoxia 1% O2, 72 h, read-out: IC50 (μM) Hypoxia 1%
[4] = 72 h, normoxia, 72 h, series compared with hypoxia 1%, read-out: IC50 (μM) Normoxia
[5] = IC50 (normoxia)/IC50 (hypoxia 0.1%)
[6] = IC50 (normoxia)/IC50 (hypoxia 1%)
[7] = hypoxia 1% O2, 72 h, read-out: IC50 (μM) Hypoxia 1% O2
[8] = normoxia, 72 h, read-out: IC50 (μM) Normoxia
[9] = 72 h, normoxia, 72 h, series compared with hypoxia 0.1%, read-out: IC50 (μM) Normoxia

| IC50 (MDA-MB-231) | IC50 (μM) Normoxia (MDA-MB-231) | IC50 (μM) Normoxia (MCF-7) | IC50 (μM) Hypoxia 1% O2 (PC3; PC3, hypoxia 1% O2, 72 h) | IC50 (μM) Normoxia (PC3) | IC50 (LoVo; [8]) | IC50 (siHa) | IC50 (μM) Normoxia (siHa) | IC50 (U373) | IC50 (μM) Normoxia (U373) | SMILES | IC50 [1, 2] | IC50 [1, 3] | IC50 [1, 4] | Selectivity [1, 5] | Selectivity [1, 6] | Selectivity (MDA-MB-231) | IC50 (LoVo; [7]) | Selectivity (LoVo) | Selectivity (siHa) | Selectivity (U373) | further results |
| --- | --- | --- | --- | --- | --- | --- | --- | --- | --- | --- | --- | --- | --- | --- | --- | --- | --- | --- | --- | --- | --- |
| 158 µM | u.t.d. | u.t.d. | u.t.d. | u.t.d. | 216 µM | 134 µM | u.t.d. | 141 µM | u.t.d. | COC(=O)c1ccc2nc3c4c(c5ccccc5c3nc2c1)OC(C)(C)[C@H]1CC[C@H](C)C[C@H]41 [Compound 11] | 65.8 µM | 10.9 µM | 149 µM | >3.4^b | 14 | >1.44^b | 152 µM | 1.42 | >1.69^b | >1.61^b | IC50 (μM) Normoxia ([1]; normoxia, 72 h, series compared with hypoxia 0.1%): u.t.d.; IC50 (μM) Hypoxia 1% O2 (MCF-7; MCF-7, hypoxia 1% O2, 72 h): u.t.d. |
| 230 µM | u.t.d. | u.t.d. | u.t.d. | u.t.d. | 210 µM | 138 µM | u.t.d. | 234 µM | u.t.d. | COc1ccc(CNC(=O)c2ccc3nc4c5c(c6ccccc6c4nc3c2)OC(C)(C)[C@H]2CC[C@H](C)C[C@H]52)c(OC)c1 [Compound 16] | 0.09 µM | 14.4 µM | 42.6 µM | 1480 | 3 | >1.16^b |  | <0.79^b | >1.92^b | >1.14^b | IC50 [1, 9]: 129 µM; IC50 (MCF-7; MCF-7, hypoxia 1% O2, 72 h): 164 µM; Selectivity (MCF-7): >1.63^b; IC50 (μM) Hypoxia 1% O2 (LoVo; hypoxia 1% O2, 72 h): u.t.d. |

| SMILES | IC50 (MDA-MB-231) | IC50 (μM) Normoxia (MDA-MB-231) | IC50 (μM) Normoxia (MCF-7) | IC50 (μM) Hypoxia 1% O2 (PC3; PC3, hypoxia 1% O2, 72 h) | IC50 (μM) Normoxia (PC3) | IC50 (LoVo; [8]) | IC50 (siHa) | IC50 (μM) Normoxia (siHa) | IC50 (U373) | IC50 (μM) Normoxia (U373) | IC50 [1, 2] | IC50 [1, 3] | IC50 [1, 4] | Selectivity [1, 5] | Selectivity [1, 6] | Selectivity (MDA-MB-231) | IC50 (LoVo; [7]) | Selectivity (LoVo) | Selectivity (siHa) | Selectivity (U373) | further results |
| --- | --- | --- | --- | --- | --- | --- | --- | --- | --- | --- | --- | --- | --- | --- | --- | --- | --- | --- | --- | --- | --- |
| COC(=O)c1ccc2nc3c(nc2c1)c1c(c2ccccc23)OC(C)(C)[C@H]2CC[C@H](C)C[C@H]12 [Compound 11′] | 136 µM | u.t.d. | u.t.d. |  | u.t.d. | 220 µM | 132 µM | u.t.d. | 74.9 µM | u.t.d. | 13.6 µM | 11.8 µM | 176 µM | 16.5 | 15 | >1.67^b | 154 µM | 1.43 | >1.72^b | >3.03^b | IC50 [1, 9]: 225 µM; IC50 (MCF-7; MCF-7, hypoxia 1% O2, 72 h): 150 µM; Selectivity (MCF-7): >1.52^b; IC50 (PC3; Homo sapiens, PC-3, PC3, hypoxia 1% O2, 72 h, read-out: IC50 (μM) Hypoxia 1% O2): 161 µM; Selectivity (PC3; PC3, IC50 (normoxia)/IC50 (hypoxia 1% O2), if u.t.d., ratio of activity at 100 μM): >1.41^b |
